Values after ≈ are worked out from the molar mass of the structure shown. Read-outs that look alike come from different tables or passages of the source.

In one series the test system is Str. pneumoniae. The series can be described thus: MIC in Nutrient Broth (Table III). The series is classed as cell-based. Conditions: Streptococcus pneumoniae, 10^-3 dilution of overnight broth culture, 45% AAB, 5% serum, 50% broth. From the text: (§1) Organism in Nutrient Broth
(§2) *45% AAB 5% serum 50% broth listed above,
(§3) **Dilution of overnight broth culture

The test system of series [1] is Str. pyogenes. Briefly: MIC in Nutrient Broth (Table III). Conditions: Streptococcus pyogenes, 10^-3 dilution of overnight broth culture, 45% AAB, 5% serum, 50% broth. Type of series: cell-based.
Excerpt: as §1, §2, §3

Series [2] has as its system Pr. mirabilis. The series can be described thus: MIC in Nutrient Broth (Table III). Type of series: cell-based. Particulars: Proteus mirabilis; Pr. mirabilis (10^-4).
Excerpt: as §1, §3

For series [3], the system named is Ps. aeruginosa. Briefly: MIC in Nutrient Broth (Table III). The series is classed as cell-based. Particulars: Pseudomonas aeruginosa.
Excerpt: as §1, §3

A further series relates to Ent. cloacae. Briefly: MIC in Nutrient Broth (Table III). Type of series: cell-based. Particulars: Enterobacter cloacae, Ent. cloacae (10^-4).
Excerpt: as §1, §3

The test system of series [4] is S. aureus Smith. The series can be described thus: MIC in Nutrient Broth (Table III). The series is classed as cell-based. Particulars: Staphylococcus aureus, S. aureus Smith (10^-4).
Excerpt: as §1, §3

Series [5] has as its system E. coli Juhl. Briefly: MIC in Nutrient Broth (Table III). Type of series: cell-based. Particulars: Escherichia coli; E. coli Juhl (10^-4).
Excerpt: as §1, §3

Series [6] concerns Sal. enteritidis. The series can be described thus: MIC in Nutrient Broth (Table III). The series is classed as cell-based. Conditions: Salmonella enterica; Sal. enteritidis (10^-4).
Excerpt: as §1, §3

Series [7] has as its system K. pneumoniae. Briefly: MIC in Nutrient Broth (Table III). Conditions: Klebsiella pneumoniae. Type of series: cell-based.
Excerpt: as §1, §3

A further series has as its system S. aureus Meth.-Res. Briefly: MIC in Nutrient Broth (Table III). Type of series: cell-based. Particulars: Staphylococcus aureus, S. aureus Meth.-Res. (10^-3), read-out: MIC.
Excerpt: as §1, §3

Series [8] deals with Pr. morganii. The series can be described thus: MIC in Nutrient Broth (Table III). The series is classed as cell-based. Particulars: Morganella morganii.
Excerpt: as §1, §3

For series [9], the system named is S. aureus BX1633. Briefly: MIC in Nutrient Broth (Table III). The series is classed as cell-based. Particulars: Staphylococcus aureus.
Excerpt: as §1, §3

Series [10] relates to Ser. marcescens. Briefly: MIC in Nutrient Broth (Table III). The series is classed as cell-based. Conditions: Serratia marcescens; Ser. marcescens (10^-4).
Excerpt: as §1, §3

In series [11] the test system is E. coli. Briefly: MIC in Nutrient Broth (Table III). Type of series: cell-based. Particulars: Escherichia coli; E. coli (10^-4).
Excerpt: as §1, §3

Series [12] has as its system Ps. aeruginosa. Briefly: MIC against various organisms (Table I). Type of series: cell-based. Conditions: Pseudomonas aeruginosa; Ps. aeruginosa; read-out: minimum inhibitory concentration.
For the next series, the system named is D. pneumoniae. Briefly: MIC against various organisms (Table I). The series is classed as cell-based. Particulars: Streptococcus pneumoniae; D. pneumoniae + 5% serum; read-out: minimum inhibitory concentration.
For series [13], the system named is S. aureus BX1633. Briefly: MIC against various organisms (Table I). Particulars: Staphylococcus aureus, read-out: minimum inhibitory concentration. Type of series: cell-based.
Series [14] concerns Ser. marcescens. The series can be described thus: MIC against various organisms (Table I). The series is classed as cell-based. Particulars: Serratia marcescens, read-out: minimum inhibitory concentration.
A further series can be described thus: in vivo. Details: species or system mice. Particulars: mouse, po, 50 mg/kg.
For series [15], the system named is E. coli. Briefly: MIC against various organisms (Table I). The series is classed as cell-based. Particulars: Escherichia coli, read-out: minimum inhibitory concentration.
Series [16] has as its system Str. pyogenes. The series can be described thus: MIC against various organisms (Table I). Type of series: cell-based. Particulars: Streptococcus pyogenes; Str. pyogenes + 5% serum; read-out: minimum inhibitory concentration.
In another series the test system is S. aureus. The series can be described thus: MIC against various organisms (Table I). The series is classed as cell-based. Particulars: Staphylococcus aureus, third of three lines, read-out: minimum inhibitory concentration.
The subject of series [17] is Pr. mirabilis. The series can be described thus: MIC against various organisms (Table I). Type of series: cell-based. Particulars: Proteus mirabilis, read-out: minimum inhibitory concentration.
The test system of series [18] is Pr. morganii. Briefly: MIC against various organisms (Table I). Type of series: cell-based. Conditions: Morganella morganii; Pr. morganii; read-out: minimum inhibitory concentration.
Series [19] is described as follows: Oral absorption in man, BL-P1780 Study 101. Particulars: in vivo, po. As to the method: (§4) Only the latter are biologically active per se. Also, both original ester and parent penicillin were measured.
Three formulations were each administered once orally to six (6) healthy adult male subjects in BL-P1780 Study 101 as follows:
A. BL-P1780, 500 mg. (of amoxicillin-equivalent activity) as two 250 mg. buffered tablets.
B. BL-P1780, 500 mg. (an amoxicillin-equivalent activity) as two 250 mg. buffered tablets with 3.5 g. sodium bicarbonate being taken five minutes prior to the adminstration of BL-P1780.
C. Amoxicillin, 500 mg. as two 250 mg. capsules.
1. To investigate the human safety and tolerance of single 500 mg. doses of BL-P1780.
2. To determine the effect of intragastric buffering with sodium bicarbonate on the absorption of BL-P1780.
3. To compare amoxicillin plasma and saliva concentrations and urinary excretion between BL-P1780 and amoxicillin.

For series [20], the system named is S. aureus Smith. Briefly: MIC against various organisms (Table I). Type of series: cell-based. Particulars: Staphylococcus aureus, read-out: minimum inhibitory concentration.
Series [21] concerns Sal. enteritidis. The series can be described thus: MIC against various organisms (Table I). Particulars: Salmonella enterica, read-out: minimum inhibitory concentration. The series is classed as cell-based.
In series [22] the test system is E. coli Juhl. Briefly: MIC against various organisms (Table I). The series is classed as cell-based. Particulars: Escherichia coli, read-out: minimum inhibitory concentration.
Series [23] has as its system K. pneumoniae. Briefly: MIC against various organisms (Table I). Particulars: Klebsiella pneumoniae, K. pneumoniae, read-out: minimum inhibitory concentration. The series is classed as cell-based.
The conditions of series [24]: in vivo. How it is done: as §4
[25] abbreviates: second of three lines, read-out: MIC.
Setting [26] is: K. pneumoniae (10^-4), first of two lines, read-out: MIC.
Setting [27] is: BX1633, S. aureus BX1633 (10^-3), read-out: MIC.

For `CC1(C)S[C@@H]2[C@H](NC(=O)[C@H](N)c3ccc(O)cc3)C(=O)N2[C@H]1C(=O)O` [Amoxicillin Trihydrate], the MIC in the series with Str. pneumoniae was 0.016 µg/mL; against Str. pyogenes [1], 0.016 µg/mL; against Pr. mirabilis [2], 0.25 µg/mL; in the series on Ps. aeruginosa [3], more than 125 µg/mL; against Ent. cloacae (first of three lines) it was more than 125 µg/mL; with Ent. cloacae (setting [25]), 63 µg/mL. For the same molecule, the MIC against Ent. cloacae (third of three lines) was 125 µg/mL; in the series on S. aureus Smith [4] it was 0.13 µg/mL; in the series with E. coli Juhl [5], 1 µg/mL; against Sal. enteritidis [6] it was 0.25 µg/mL; in the series with K. pneumoniae [7], more than 125 µg/mL; in the series on K. pneumoniae [7] (setting [26]), 0.25 µg/mL. Further, the MIC is 32 µg/mL in the series on S. aureus Meth.-Res. (28° C.); 63 µg/mL with S. aureus Meth.-Res. (37° C.); more than 125 µg/mL in the series with Pr. morganii [8]; more than 125 µg/mL against S. aureus BX1633 [9] (BX1633); 16 µg/mL in the series on S. aureus BX1633 [9] (setting [27]); 32 µg/mL in the series on Ser. marcescens [10]. This molecule also had an MIC with E. coli [11] of 16 µg/mL.

As to `COCOC(=O)[C@@H]1N2C(=O)[C@@H](N3C(=O)[C@@H](c4ccc(O)cc4)NC3(C)C)[C@H]2SC1(C)C` [Example 8, methoxymethyl 6-[D-(-)-2,2-dimethyl-4-(4-hydroxyphenyl)-5-oxo-1-imidazolyl]-penicillanate], the MIC is 0.008 µg/mL (≈ 0.0178 µM) with Str. pneumoniae; 0.008 µg/mL (≈ 0.0178 µM) with Str. pyogenes [1]; 0.25 µg/mL (≈ 0.556 µM) in the series on Pr. mirabilis [2]; more than 125 µg/mL in the series on Ps. aeruginosa [3] (Ps. aeruginosa (10^-4), read-out: MIC); 125 µg/mL (≈ 278 µM) with Ent. cloacae (first of three lines, read-out: MIC); 125 µg/mL (≈ 278 µM) with Ent. cloacae (setting [25]). For the same molecule, the MIC is 63 µg/mL (≈ 140 µM) in the series with Ent. cloacae (third of three lines, read-out: MIC); 0.13 µg/mL (≈ 0.289 µM) in the series on S. aureus Smith [4]; 1 µg/mL (≈ 2.22 µM) in the series on E. coli Juhl [5]; 1 µg/mL (≈ 2.22 µM) against Sal. enteritidis [6]; 0.13 µg/mL (≈ 0.289 µM) in the series on K. pneumoniae [7] (setting [26]); more than 125 µg/mL with K. pneumoniae [7] (K. pneumoniae (10^-4), second of two lines, read-out: MIC). Moreover, the MIC in the series on S. aureus Meth.-Res. (28° C.) is 63 µg/mL (≈ 140 µM); in the series on S. aureus Meth.-Res. (37° C.), 125 µg/mL (≈ 278 µM); in the series with Pr. morganii [8] (Pr. morganii (10^-4), read-out: MIC) it was more than 125 µg/mL; with S. aureus BX1633 [9] (BX1633, S. aureus BX1633 (10^-2), read-out: MIC), more than 125 µg/mL; in the series on S. aureus BX1633 [9] (setting [27]), 16 µg/mL (≈ 35.6 µM); in the series with Ser. marcescens [10], more than 125 µg/mL. Besides, the MIC against E. coli [11] was 32 µg/mL (≈ 71.2 µM); with Ps. aeruginosa [12], more than 125 µg/mL; with D. pneumoniae, 0.004 µg/mL; in the series on S. aureus BX1633 [13] (BX1633, S. aureus BX1633, first of two lines), 125 µg/mL (≈ 278 µM); in the series on S. aureus BX1633 [13] (BX1633, S. aureus BX1633, second of two lines), more than 125 µg/mL; in the series with Ser. marcescens [14], 32 µg/mL (≈ 71.2 µM). Further, the MIC was 32 µg/mL (≈ 71.2 µM) in the series with E. coli [15]; 0.004 µg/mL in the series on Str. pyogenes [16]; more than 125 µg/mL in the series on S. aureus; 0.16 µg/mL (≈ 0.356 µM) in the series with Pr. mirabilis [17]; 32 µg/mL (≈ 71.2 µM) in the series on Pr. morganii [18]; 0.06 µg/mL in the series with S. aureus Smith [20] (S. aureus Smith + 50% serum). Further, the MIC in the series on S. aureus Smith [20] (S. aureus Smith) was 0.06 µg/mL (≈ 0.133 µM); with Sal. enteritidis [21] it was 0.13 µg/mL (≈ 0.289 µM); in the series with E. coli Juhl [22], 1 µg/mL (≈ 2.22 µM); in the series with K. pneumoniae [23] (first of two lines) it was 0.16 µg/mL (≈ 0.356 µM); with K. pneumoniae [23] (second of two lines), more than 125 µg/mL. For the same molecule, the concentration at 0.5 h in “in vivo” came to 4800 ng/mL. Moreover, the concentration at 1 h in “in vivo” worked out at 3500 ng/mL. The molecule further displayed a concentration at 2 h in “in vivo” of 1700 ng/mL. The concentration at 3.5 h in the series “in vivo” worked out at 700 ng/mL. Also, in [19], the “need of intragastric buffering for bioavailability or tissue distribution” value was “not necessary”. Moreover, in series [24], the “tissue distribution of amoxicillin from BL-P1780 over that of ampicillin, amoxicillin or ampicillin from sarpicillin” value was “markedly improved tissue distribution”. The “hydrolysis of the ester” value in series [24] (po) is listed as “hydrolyze eventually to their parent penicillins”.

On to `CC1(C)S[C@@H]2[C@H](N3C(=O)[C@@H](c4ccccc4)NC3(C)C)C(=O)N2[C@H]1C(=O)O` [Compound 3, D-6-(2,2-dimethyl-5-oxo-4-phenyl-1-imidazolidinyl)penicillanic acid], for which, in the series “in vivo”, the concentration at 0.5 h came out at 2000 ng/mL, the concentration at 2 h worked out at 1100 ng/mL and the concentration at 3.5 h was 500 ng/mL.

These data come from patent US4185015A, “Methoxymethyl 6-[D-2,2-dimethyl-4-(4-hydroxyphenyl)-5-oxo-1-imidazolyl]penicillanate” (priority 1977, dated 1980).
